The values below come from US20250326722A1 (SHANGHAI HANSOH BIOMEDICAL CO., LTD., priority 2022, published 2025).

One series addresses PCSK9 protein (Homo sapiens (Human), UniProt Q8NBP7). Put plainly: Binding experiment: surface plasmon resonance (SPR) binding to PCSK9 protein. An excerpt: • 1. Experimental objective: To detect the action of compounds to bind PCSK9 protein by a conventional surface plasmon resonance (SPR) method.
The test system of series [1] is hyperlipidemia animal model of B6-hPCSK9 transgenic mice. Put plainly: In vivo pharmacodynamics in hyperlipidemia animal model of B6-hPCSK9 transgenic mice. Also noted: species or system B6-hPCSK9 transgenic C57 mice. The conditions noted are these: PO administration, Day 14, high-fat feed. The method, then: The compounds of the present disclosure were evaluated for in vivo pharmacodynamics in a hyperlipidemia animal model of B6-hPCSK9 transgenic mice.
B6-hPCSK9 transgenic C57 mice, 6-8 weeks old, male, purchased from Jiangsu GemPharmatech Co., Ltd.
After delivery to a barrier system, the animals were given one week for acclimatization and began to feed on the high-fat feed. The body weight and feed weight were weighed once a week, and the body weight and food intake thereof were recorded.
a. The animals were grouped by a random grouping method.
c. According to the grouping results, administration with the test drug was started (mode of administration: oral administration; administration volume: 10 mL/kg; frequency of administration: once/day or single administration; administration cycle: 21 days; vehicle: 10% Solutol HS 15/90% Saline).
d. After the test drug was administered, the body weight and feed weight were weighed twice a week and blood was taken once a week.
e. The data was processed with software such as Excel. […] PCSK9 in plasma was detected by ELISA.

Series [2] deals with PCSK9 secreted by HepG2 cells (Homo sapiens (Human), UniProt Q8NBP7). Put plainly: Effect on the concentration of PCSK9 secreted by HepG2 cells (ELISA). It counts as cell-based. The following applies: 48 hours incubation, read-out: Inhibitory activity on PCSK9, IC50.
Series [3] can be described thus: Pharmacokinetic determination in mice (plasma). It counts as in vivo, C57BL/6J mice. The conditions noted are these: C57 mice, PO administration, 5 mpk; for AUC(0-inf) / half-life / MRT / Cmax: male, C57BL/6J, mouse, 5 mg/kg; for AUC(0-inf): read-out: Area under the curve AUC0-∞; for half-life: read-out: Half-life t1/2 (converted); for MRT: read-out: Mean residence time MRT; for Cmax: read-out: Plasma concentration Cmax. A digest of the protocol:
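Male C57BL/6J mice (n=3 per route), fasted overnight, got 5 mg/kg PO in 10% Solutol HS15 or 1 mg/kg IV in 5% DMSO/10% Solutol HS15/85% PBS. Orbital blood was sampled at 0.083 (IV only), 0.25, 0.5, 1, 2, 4, 8 and 24 h. EDTA-K2 plasma was quantified by LC-MS/MS for PK parameters.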

For a further series, the system named is LDL-C. The following applies: combined with a statin; cited from earlier work.

Each structure is given as a SMILES string.

Sequence of PCSK9 secreted by HepG2 cells (Q8NBP7 153-692): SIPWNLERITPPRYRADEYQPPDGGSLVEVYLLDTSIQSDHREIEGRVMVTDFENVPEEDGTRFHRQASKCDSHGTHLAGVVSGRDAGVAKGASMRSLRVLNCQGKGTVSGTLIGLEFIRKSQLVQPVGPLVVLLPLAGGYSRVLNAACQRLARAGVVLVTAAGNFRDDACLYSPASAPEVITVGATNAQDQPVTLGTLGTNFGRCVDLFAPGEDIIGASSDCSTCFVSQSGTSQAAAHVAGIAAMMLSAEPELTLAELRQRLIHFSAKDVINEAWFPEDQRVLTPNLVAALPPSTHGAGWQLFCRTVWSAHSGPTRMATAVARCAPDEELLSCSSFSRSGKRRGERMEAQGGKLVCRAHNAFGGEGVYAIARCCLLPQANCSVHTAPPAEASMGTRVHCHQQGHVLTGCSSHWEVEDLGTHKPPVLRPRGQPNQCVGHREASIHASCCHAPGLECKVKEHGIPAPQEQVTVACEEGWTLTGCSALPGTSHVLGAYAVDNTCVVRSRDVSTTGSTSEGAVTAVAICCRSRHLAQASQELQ
Sequence of PCSK9 secreted by HepG2 cells (Q8NBP7 31-152 partner): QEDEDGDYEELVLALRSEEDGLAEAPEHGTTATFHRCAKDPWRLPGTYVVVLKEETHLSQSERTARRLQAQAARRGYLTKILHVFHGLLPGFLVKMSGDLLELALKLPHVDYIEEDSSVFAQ
Sequence of PCSK9 protein (Q8NBP7 153-692): as the sequence (Q8NBP7 153-692) above

`Cc1nccc2c1CN(c1ccc(N[C@H]3CC[C@H](Nc4nc5cc(F)ccn5n4)C3)nc1)C2=O` [Example 149, 2-(6-(((1S,3S)-3-((7-fluoro-[1,2,4]triazolo[1,5-a]pyridin-2-yl)amino)cyclopentyl)amino)pyridin-3-yl)-4-methyl-2,3-dihydro-1H-pyrrolo[3,4-c]pyridin-1-one] showed a Kd at PCSK9 protein of 1.4 nM. Also, the “LDL-C change, Day 14” value in series [1] (10 mpk) was −41.65%. Further, the IC50 in series [2] amounted to 15500 nM. For the same compound, in series [3], the Time to peak tmax is 0.5 h, the AUC(0-inf) worked out at 24200 ng·h/mL, the half-life was 4.8 h and the MRT came to 2.4 h. The Cmax in series [3] was found to be 12300 ng/mL.

Consider `Cc1cc2c(cn1)CN(c1ccc(N[C@H]3CC[C@H](Nc4nc5cc(F)ccn5n4)C3)nc1)C2=O` [Example 147, 2-(6-(((1S,3S)-3-((7-fluoro-[1,2,4]triazolo[1,5-a]pyridin-2-yl)amino)cyclopentyl)amino)pyridin-3-yl)-6-methyl-2,3-dihydro-1H-pyrrolo[3,4-c]pyridin-1-one], for which the “LDL-C change, Day 14” value in series [1] (3 mpk) is −23.20%. The IC50 in series [2] came out at 24100 nM. In series [3], the Time to peak tmax came to 2 h, the AUC(0-inf) came out at 52000 ng·h/mL, the half-life was 4.4 h and the MRT amounted to 4.8 h. The Cmax in series [3] is 8230 ng/mL.

With `O=C1c2ncccc2CN1c1ccc(N[C@H]2CC[C@H](Nc3nc4cc(F)ccn4n3)C2)nc1` [Example 129, 6-(6-(((1S,3S)-3-((7-fluoro-[1,2,4]triazolo[1,5-a]pyridin-2-yl)amino)cyclopentyl)amino)pyridin-3-yl)-5,6-dihydro-7H-pyrrolo[3,4-b]pyridin-7-one], in series [1] (5 mpk), the “LDL-C change, Day 14” value was −21.98%. Moreover, the half-maximal inhibitory concentration (IC50) in series [2] is 7400 nM. For the same compound, in series [3], the Time to peak tmax stood at 0.5 h, the AUC(0-inf) came to 9640 ng·h/mL, the half-life was 3.9 h and the MRT is 1.5 h. The Cmax in series [3] was determined as 4880 ng/mL.

As to `O=C1c2cccc(C(F)(F)F)c2CN1c1ccc(N[C@H]2CC[C@H](Nc3ncc(C(F)(F)F)nn3)C2)nc1` [Example 158, 4-(Trifluoromethyl)-2-(6-(((1S,3S)-3-((6-(trifluoromethyl)-1,2,4-triazin-3-yl)amino)cyclopentyl)amino)pyridin-3-yl) isoindolin-1-one], the “LDL-C change, Day 14” value in series [1] (10 mpk) is given as −28.97%. In addition, the IC50 in series [2] was 1900 nM. Further, in series [3], the Time to peak tmax was 4 h, the AUC(0-inf) worked out at 22400 ng·h/mL, the half-life is 16.2 h and the MRT was 19.5 h. Also, the Cmax in series [3] turned out to be 2320 ng/mL.

As for `O=C1[C@H](CC[C@H](O)c2ccc(F)cc2)[C@@H](c2ccc(O)cc2)N1c1ccc(F)cc1` [Ezetimibe], the LDL-C reduction in the series on LDL-C is given as 15-20%.

At PCSK9 protein, `Cc1cc2c(cn1)CN(c1ccc(N[C@H]3CC[C@H](Nc4nc5cc(C(F)(F)F)ccn5n4)C3)nc1)C2=O` [Example 156, 6-Methyl-2-(6-(((1S,3S)-3-((7-(trifluoromethyl)-[1,2,4]triazolo[1,5-a]pyridin-2-yl)amino)cyclopentyl)amino)pyridin-3-yl)-2,3-dihydro-1H-pyrrolo[3,4-c]pyridin-1-one] gave a Kd of 4.8 nM. Besides, the “LDL-C change, Day 14” value in series [1] (10 mpk) is −25.97%. Besides, in series [2], the IC50 came to 2100 nM. Moreover, in series [3], the Time to peak tmax amounted to 1 h, the AUC(0-inf) is 19700 ng·h/mL, the half-life is 3.6 h and the MRT is 3.2 h. Besides, the Cmax in series [3] stood at 5010 ng/mL.

The compound `O=c1ccccn1-c1ccc(N[C@H]2CC[C@H](Nc3nc4cc(F)ccn4n3)C2)nc1` [Example 27, 6′-((3-(((1S,3S)-7-fluoro-[1,2,4]triazolo[1,5-a]pyridin-2-yl)amino)cyclopentyl)amino)-2H-[1,3′-bipyridinyl]-2-one] yielded a Kd at PCSK9 protein of 2.6 nM. In series [1] (6 mpk), the “LDL-C change, Day 14” value is −31.52%.

On to `O=C1c2ncccc2CN1c1ccc(N[C@H]2CC[C@H](Nc3nc4cc(C(F)(F)F)ccn4n3)C2)nc1` [Example 143, 6-(6-(((1S,3S)-3-((7-(trifluoromethyl)-[1,2,4]triazolo[1,5-a]pyridin-2-yl)amino)cyclopentyl)amino)pyridin-3-yl)-5,6-dihydro-7H-pyrrolo[3,4-b]pyridin-7-one], for which the affinity on PCSK9 protein, expressed as Kd, was 1.2 nM. The “LDL-C change, Day 14” value in series [1] (10 mpk) is reported as −34.97%. Besides, in series [3], the Time to peak tmax worked out at 1 h, the AUC(0-inf) stood at 11600 ng·h/mL, the half-life is 3.9 h and the MRT was 2.2 h. Moreover, the Cmax in series [3] turned out to be 3870 ng/mL.
